The record followed here is patent publication US5081234A, “4'-demethylepipodophyllotoxin glycosides” (Bristol-Myers Squibb Co., priority 1990, dated 1992).

By IC50 is commonly meant the concentration that gives 50% inhibition. Read a low IC50 as inhibition by little substance.

The subject of test [1] is murine P388 lymphocytic leukemia. Briefly: In vivo antitumor activity against murine P388 lymphocytic leukemia. On the set-up: species or system mice (female CDF1). The note with it: median survival time treated/control; P388 i.p. day 0, i.p. once on day 1 (Q1D×1), observed 45 days; maximum T/C, at dose (mg/kg): D 30, E 120, F 60, G 120, H 30, I 10, K 10, Etoposide 120; >125% considered significant. As for the experimental part: Representative compounds of the present invention were evaluated against murine P388 lymphocytic leukemia. Female CDF1 mice were inoculated with 1.0×10^6 of leukemia cells intraperitoneally (day 0), and test materials were intraperitoneally administered to mice once on day 1 (Q1D×1). […] The median survival time (MST) of each group was recorded, and antitumor activity was expressed as T/C % values calculated by the following equation:
T/C%=(MST of treated.div.MST of control)×100

In test [2] the test system is Murine melanoma B16-F10 cells. Briefly: In vitro cytotoxicity vs B16-F10 (72 h, neutral red staining). Type of test: cell-based. The note with it: Mus musculus, neutral red at 540 nm. As for the experimental part: Murine melanoma B16-F10 cells were grown and maintained at 37° C. under a humidified atmosphere in a 5% CO2 incubator in Eagle's MEM medium (Nissui) containing kanamycin (60 μg/ml), and supplemented with heat inactivated fetal calf serum (10%) and non-essential amino acids (0.6%). For in vitro cytotoxicity experiments, exponentially growing B16-F10 cells were harvested, counted, and suspended in the culture medium at the concentration of 2.0×10^4 cells/ml. Twenty-four hours after planting cell suspension (180 μl ) into wells of a 96-well microtiter plate, test materials (20 μl) were added to the wells and the plates were incubated for 72 hours. The cytotoxic activity against B16-F10 cells was colorimetrically determined at 540 nm after staining viable cells with neutral red solution.

Values after ≈ are worked out from the molar mass of the structure shown.

As to `COc1cc([C@@H]2c3cc4c(cc3[C@@H](O[C@H]3OC[C@@H](O)[C@@H](O)[C@@H]3O)[C@H]3COC(=O)[C@H]23)OCO4)cc(OC)c1O` [Compound K, 4'-Demethyl-4-O-(α-D-arabinopyranosyl)epipodophyllotoxin], the “Antitumor Activity vs P388, Max % T/C” value in test [1] is 125%. The IC50 in test [2] was 28 µg/mL (≈ 52.6 µM).

For `COc1cc([C@@H]2c3cc4c(cc3[C@@H](O[C@H]3OC[C@@H](O)[C@H](O)[C@H]3O)[C@H]3COC(=O)[C@H]23)OCO4)cc(OC)c1O` [Compound I, 4'-Demethyl-4-O-(α-D-xylopyranosyl)epipodophyllotoxin], the “Antitumor Activity vs P388, Max % T/C” value in test [1] is listed as 140%. This compound also had an IC50 in test [2] of 2.3 µg/mL (≈ 4.32 µM).

In the case of `COc1cc([C@@H]2c3cc4c(cc3[C@@H](O[C@@H]3OC[C@@H](O)[C@H](O)[C@H]3O)[C@H]3COC(=O)[C@H]23)OCO4)cc(OC)c1O` [Compound H, 4'-Demethyl-4-O-(β-D-xylopyranosyl)epipodophyllotoxin], in test [1], the “Antitumor Activity vs P388, Max % T/C” value is on record as 150%. Besides, in test [2], the IC50 was found to be 0.53 µg/mL (≈ 0.995 µM).

As to `COc1cc([C@@H]2c3cc4c(cc3[C@@H](O[C@@H]3OC[C@H]5OC(C)O[C@H]5[C@H]3O)[C@H]3COC(=O)[C@H]23)OCO4)cc(OC)c1O` (stereo partly drawn) [Compound G, 4'-Demethyl-4-O-(3,4-O-ethylidene-β-D-ribopyranosyl)epipodophyllotoxin], the “Antitumor Activity vs P388, Max % T/C” value in test [1] is listed as 152%. This compound came in with an IC50 in test [2] of 2.5 µg/mL (≈ 4.48 µM).

With `COc1cc([C@@H]2c3cc4c(cc3[C@@H](O[C@@H]3OC[C@@H](OC(C)=O)[C@@H](OC(C)=O)[C@H]3OC(C)=O)[C@H]3COC(=O)[C@H]23)OCO4)cc(OC)c1O` [Compound E, 4'-Demethyl-4-O-(2,3,4-tri-O-acetyl-β-D-ribopyranosyl)epipodophyllotoxin], in test [1], the “Antitumor Activity vs P388, Max % T/C” value is reported as 171%. For the same compound, in test [2], the 50% inhibitory concentration (IC50) turned out to be 4 µg/mL (≈ 6.07 µM).

`COc1cc([C@@H]2c3cc4c(cc3[C@@H](O[C@@H]3O[C@@H]5CO[C@@H](C)O[C@H]5[C@H](O)[C@H]3O)[C@H]3COC(=O)[C@H]23)OCO4)cc(OC)c1O` [Etoposide, reference compound] gave an IC50 in test [2] of 0.21 µg/mL (≈ 0.357 µM).

Regarding `COc1cc([C@@H]2c3cc4c(cc3[C@@H](O[C@@H]3O[C@H](CO)[C@@H](O)[C@H]3O)[C@H]3COC(=O)[C@H]23)OCO4)cc(OC)c1O` [Compound D, 4'-Demethyl-4-O-(β-D-ribofuranosyl)epipodophyllotoxin], the “Antitumor Activity vs P388, Max % T/C” value in test [1] amounted to 130%. Further, in test [2], the IC50 came out at 18 µg/mL (≈ 33.8 µM).

For `COc1cc([C@@H]2c3cc4c(cc3[C@@H](O[C@@H]3OC[C@@H](O)[C@@H](O)[C@H]3O)[C@H]3COC(=O)[C@H]23)OCO4)cc(OC)c1O` [Compound F, 4'-Demethyl-4-O-(β-D-ribopyranosyl)epipodophyllotoxin], the “Antitumor Activity vs P388, Max % T/C” value in test [1] came to 181%. The IC50 in test [2] turned out to be 1 µg/mL (≈ 1.88 µM).
